pKi: −log10 of the molar value. Where a name gives a salt, the structure may show the parent alone. Read-outs that look alike come from different tables or passages of the source.
Target: T1, Ornithine decarboxylase (ODC) (Rattus norvegicus, UniProt P09057)
T1 construct: prepared from the livers of rats which have been injected with thioacetamide; from tissue; host or cells: liver of thioacetamide-injected rats, purified about ten fold by acid treatment at pH 4.6
T1 sequence (P09057 1-461): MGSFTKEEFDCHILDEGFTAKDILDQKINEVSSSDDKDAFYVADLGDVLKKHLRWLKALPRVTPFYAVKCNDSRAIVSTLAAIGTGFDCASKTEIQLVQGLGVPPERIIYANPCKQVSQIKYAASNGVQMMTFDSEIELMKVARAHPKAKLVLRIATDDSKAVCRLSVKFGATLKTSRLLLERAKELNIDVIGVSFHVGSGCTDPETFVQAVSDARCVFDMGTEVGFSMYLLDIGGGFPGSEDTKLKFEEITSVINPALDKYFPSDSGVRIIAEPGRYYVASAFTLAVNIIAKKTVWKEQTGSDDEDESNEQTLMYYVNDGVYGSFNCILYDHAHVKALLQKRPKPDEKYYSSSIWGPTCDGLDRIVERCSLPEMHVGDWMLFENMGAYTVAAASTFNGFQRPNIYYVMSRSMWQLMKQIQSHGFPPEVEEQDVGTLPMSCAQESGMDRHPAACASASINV
Test: In vitro inhibition of ornithine decarboxylase (ODC) prepared from livers of thioacetamide-injected rats (time-dependent inactivation, 14CO2 release)
Type: biochemical
Protocol: Ornithine decarboxylase (ODC) is prepared from the livers of rats which have been injected with thioacetamide (150 mg/kg of body weight) 18 hrs before sacrifice, and is purified about ten fold by acid treatment at pH 4.6 as described by Ono et al (Biochem. Biophys. Acta 284, 285 (1972)). The stock solution of ODC is comprised of protein (16 mg/mL), sodium phosphate buffer (30 mM, pH 7.1), dithiothreitol (5 mM) and pyridoxal phosphate (0.1 mM). The specific activity of this stock solution is 0.12 nmol of CO2 /min per mg of protein. For a typical experiment 320 μl of this stock solution are mixed at time 0 with 80 μl of a solution of the inhibitor in water and incubated at 37°. At different times 50 μl aliquots are transferred into a 1-mL assay medium containing sodium phosphate (30 mM, pH 7.1), dithiothreitol (5 mM), pyridoxal phosphate (0.1 mM), L-ornithine (0.081 μmol), and DL-[1-^14 C] ornithine (0.043 μmol, 58 Ci/mol, Amersham) in a closed vessel in which a filter paper moistered with 50 μl hyamine hydroxide (1 M) is fitted. The reaction is allowed to proceed for 60 min at 37° C. and then terminated by addition of 0.5 ml of 40% trichloroacetic acid. After an additional 30 min the CO2 absorbed on the filter paper is counted in a standard scintillation cocktail, KI (apparent dissociation constant) and .tau.50 (half-life, at infinite concentration of inhibitor are calculated according to the method of Kitz and Wilson (J. Biol. Chem., 237, 3245 (1962)).
When tested according to the above-described procedure, the compounds of Examples I and 2 gave the results shown below. Half-life (t1/2) at 10 μM is also set forth below.

## C#CC(N)CCC(N)C(F)F (stereo not shown) [Example 2, 1,1-DIFLUORO-2,5-DIAMINO-6-HEPTYNE, DIHYDROCHLORIDE]
  pKi: 2.82

## C#CC(N)CCC(N)CF.Cl.Cl (stereo not shown) [Example 1, 1-FLUORO-2,5-DIAMINO-6-HEPTYNE DIHYDROCHLORIDE]
Rat liver ODC, 37°, pH 7.1, calculated by method of Kitz and Wilson, read-out: KI (apparent dissociation constant)
  pKi: 4.30
Rat liver ODC, 37°, pH 7.1, infinite concentration of inhibitor, method of Kitz and Wilson
  T50 (.tau.50, half-life at infinite concentration of inhibitor): 3.7 min
Rat liver ODC, 37°, pH 7.1, inhibitor 10 μM
  t1/2 (half-life at 10 μM): 22 min
